Measurements published in patent publication US20250230129A1, “POLYAMIDE COMPOUNDS, METHOD FOR PREPARING SAME, AND MEDICAL USE THEREOF” (priority 2022, published 2025).
Like-named read-outs stand apart in the source and are kept apart here. Square brackets hold non-standard residues; d marks the D form. Peptide text beside a SMILES is read from it. * marks the point of attachment. Gly(N-(2R-Ph-propyl)) = C[C@@H](CNCC(=O)O)c1ccccc1; Piperidin1yl(4-NH2,4-COOH) = NC1(C(=O)O)CCN(*)CC1; dPhLac = O=C(O)[C@H](O)Cc1ccccc1; X4 = COC(=O)NC1CCN(*)CC1

Assays:
ICR mice [1] = experiment: Acetic acid writhing test in mice; format: in vivo; conditions: Mus musculus; single intravenous injection, male ICR mice; read-out: Acetic acid writhing in mice ED50
ICR mice [2] = experiment: Sedation safety window; conditions: sedation side effect ED50 (autonomic activity test)/efficacy ED50 (acetic acid writhing test)
[3] = Autonomous activity test in mice; conditions: male, ICR, mouse, in vivo, iv
κ receptor = κ receptor (Homo sapiens (Human), UniProt P41145); experiment: Competitive Kappa receptor binding assay (3H-U69593)
μ receptor = μ receptor (Homo sapiens (Human), UniProt P35372); experiment: μ receptor affinity assay (3H-DAMGO); format: binding
δ receptor = δ receptor (Homo sapiens (Human), UniProt P41143); experiment: Competitive delta receptor binding assay (3H-DADLE)
[4] = target: κ-opioid receptor (Kappa) (Homo sapiens (Human), UniProt P41145); experiment: In vitro functional assay, HTRF cAMP-Gi in CHO-K1-OPRK1 cells; format: cell-based
[5] = PK and blood-brain barrier permeability in mice; format: in vivo; conditions: male ICR mice, intravenous 1 mg/kg; for AUC(0-inf) / Vd / clearance / half-life / Cmax: plasma; for half-life: read-out: t½ (converted)
Description: The compounds of the present disclosure were investigated for pharmacokinetic characteristics and blood-brain barrier permeability in mice.
Healthy male ICR mice were randomly grouped, 6 animals per group. For each test compound, 3 groups of animals were used. The first group of animals was used for collecting blood and brain 5 min after the administration, and the second group of animals and the third group of animals were used for cross blood collection at subsequent time points; each test compound was intravenously administered (1 mg/kg) to corresponding groups of mice, and blood sampling via submaxillary veins of the mice was carried out at different time points. Drug contents in plasma and brain tissues at different time points were measured by an LC-MS/MS method, the brain-to-blood ratio B/P was calculated by using EXCEL software, and pharmacokinetic parameters were calculated by using DAS3.0 software.

hERG = hERG (Homo sapiens (Human), UniProt Q12809); experiment: in vitro; conditions: pH 7.4
[6] = blood and brain 5 min after administration
[7] = read-out: In vitro agonistic effects on k-opioid receptors EC50

Compound	ED50 (ICR mice [1])	Safety window (ICR mice [2])	ED50 at 30 min [3]	Ki (κ receptor)	Ki (μ receptor)	Ki (δ receptor)	EC50 [4]	B/P (brain-to-blood ratio) [5, 6]	AUC(0-inf) ([5]; mouse)	Vd ([5]; mouse)	clearance ([5]; mouse)	half-life ([5]; mouse)	Cmax ([5]; mouse)	Kp at 5 min ([5]; mouse, brain/plasma, blood and brain 5 min after administration, read-out: B/P (brain-to-blood ratio))	inhibition at 10 µM (hERG)	Ki (κ receptor; read-out: κ receptor Ki)	Ki (μ receptor; read-out: μ receptor Ki)	Ki (δ receptor; read-out: δ receptor Ki)	EC50 [4, 7]
CC(C)C[C@@H](NC(=O)[C@@H](Cc1ccccc1)NC(=O)CNC[C@H](C)c1ccccc1)C(=O)N[C@H](CCCCN)C(=O)N1CCC(N)(C(=O)O)CC1 [Comparative Example 1B, reference compound] (H-[Gly(N-(2R-Ph-propyl))][dF][dL][dK]-{Piperidin1yl(4-NH2,4-COOH)})	0.25 mg/kg	2.36	0.59 mg/kg	–	–	–	–	–	–	–	–	–	–	–	–	–	–	–	–
CC(C)C[C@@H](NC(=O)[C@@H](Cc1ccccc1)NC(=O)C[C@@H](N)c1ccccc1)C(=O)N[C@H](CCCCN)C(=O)N1CCC(N)(C(=O)O)CC1 [Compound 4-0, 4-amino-1-[(2R)-6-amino-2-[(2R)-2-[(2R)-2-((3R)-3-amino-3-phenylpropionylamino)-3-phenylpropionylamino]-4-methylpentanoylamino]hexanoyl]piperidine-4-carboxylic acid]	1.14 mg/kg	6.44	7.34 mg/kg	2.8 nM	> 1000 nM	> 1000 nM	3.62 nM	–	–	–	–	–	–	–	–	–	–	–	–
CC(C)C[C@@H](NC(=O)[C@@H](Cc1ccccc1)NC(=O)N(C)C(CN)c1ccccc1)C(=O)N[C@H](CCCCN)C(=O)N1CCS(=N)(=O)CC1 (stereo partly drawn) [Compound 10]	–	–	–	0.86 nM	> 1000 nM	> 1000 nM	1.1 nM	0.007	4010 ng·h/mL	0.29 L/kg	4.17 mL/min/kg	49.2 min	3220 ng/mL	–	–	–	–	–	–
COC(=O)NC1CCN(C(=O)[C@@H](CCCCN)NC(=O)[C@@H](CC(C)C)NC(=O)[C@@H](Cc2ccccc2)NC(=O)[C@H](O)Cc2ccccc2)CC1 [Compound 11] (H-[dPhLac][dF][dL][dK]-X4)	1.82 mg/kg	5.27	9.6 mg/kg	0.94 nM	> 1000 nM	> 1000 nM	5.1 nM	–	–	–	–	–	–	–	–	–	–	–	–
COC(=O)NC1CCN(C(=O)[C@@H](CCCCN)NC(=O)[C@@H](CC(C)C)NC(=O)[C@@H](Cc2ccccc2)NC(=O)N(C)C(CN)c2ccccc2)CC1 (stereo partly drawn) [Compound 12, methyl N-{1-[(2R)-6-amino-2-[(2R)-2-[(2R)-2-{[(2-amino-1-phenylethyl)(methyl)carbamoyl]amino}-3-phenylpropionylamino]-4-methylpentanoylamino]hexanoyl]piperidin-4-yl}carbamate]	–	–	–	0.53 nM	> 1000 nM	> 1000 nM	0.17 nM	–	3680 ng·h/mL	0.54 L/kg	4.67 mL/min/kg	85.2 min	2260 ng/mL	0.008	2.13%	–	–	–	–
COC(=O)C1(N)CCN(C(=O)[C@@H](CCCCN)NC(=O)[C@@H](CC(C)C)NC(=O)[C@@H](Cc2ccccc2)NC(=O)N(CCN)Cc2ccccc2)CC1 [Compound 13-2, methyl 4-amino-1-[(2R)-6-amino-2-[(2R)-2-[(2R)-2-{[2-aminoethyl(benzyl)carbamoyl]amino}-3-phenylpropionylamino]-4-methylpentanoylamino]hexanoyl]piperidine-4-carboxylate]	0.17 mg/kg	16.18	2.75 mg/kg	0.13 nM	> 1000 nM	> 1000 nM	0.13 nM	BQL**	1690 ng·h/mL	0.63 L/kg	10 mL/min/kg	43.2 min	2930 ng/mL	–	–	–	–	–	–
CC(C)C[C@@H](NC(=O)[C@@H](Cc1ccccc1)NC(=O)N(CCN)Cc1ccccc1)C(=O)N[C@H](CCCCN)C(=O)N1CCS(=O)(=O)CC1 [Compound 21]	0.5 mg/kg	2.82	1.42 mg/kg	0.33 nM	> 1000 nM	> 1000 nM	0.68 nM	0.010	2670 ng·h/mL	0.63 L/kg	6.33 mL/min/kg	69 min	3460 ng/mL	–	–	–	–	–	–
CC(C)C[C@@H](NC(=O)[C@@H](Cc1ccccc1)NC(=O)N(Cc1ccccc1)C1CCNC1)C(=O)N[C@H](CCCCN)C(=O)N1CCC(N)(C(=O)O)CC1 (stereo partly drawn) [Compound 27]	0.88 mg/kg	5.22	4.59 mg/kg	0.88 nM	> 1000 nM	> 1000 nM	0.87 nM	0.010	1160 ng·h/mL	0.63 L/kg	14.7 mL/min/kg	30 min	2320 ng/mL	–	–	–	–	–	–
CC(C)C[C@@H](NC(=O)[C@@H](Cc1ccccc1)NC(=O)N(CCN)Cc1ccccc1)C(=O)N[C@H](CCCCN)C(=O)N1CCC2(CC1)NC(=O)NC2=O [Compound 29]	0.41 mg/kg	3.28	1.35 mg/kg	0.63 nM	> 1000 nM	> 1000 nM	0.058 nM	0.010	3340 ng·h/mL	0.32 L/kg	5.17 mL/min/kg	44.4 min	4710 ng/mL	–	–	–	–	–	–
CC(=O)NC1CCN(C(=O)[C@@H](CCCCN)NC(=O)[C@@H](CC(C)C)NC(=O)[C@@H](Cc2ccccc2)NC(=O)N(CCN)Cc2ccccc2)CC1 [Compound 45]	–	–	–	0.52 nM	> 1000 nM	> 1000 nM	0.16 nM	–	–	–	–	–	–	–	–	–	–	–	–
COC(=O)N1CCN(C(=O)[C@@H](CCCCN)NC(=O)[C@@H](CC(C)C)NC(=O)[C@@H](Cc2ccccc2)NC(=O)N(CCN)Cc2ccccc2)CC1 [Compound 46]	–	–	–	0.29 nM	> 1000 nM	> 1000 nM	0.22 nM	–	–	–	–	–	–	–	–	–	–	–	–
CC(=O)N1CCN(C(=O)[C@@H](CCCCN)NC(=O)[C@@H](CC(C)C)NC(=O)[C@@H](Cc2ccccc2)NC(=O)N(CCN)Cc2ccccc2)CC1 [Compound 47]	–	–	–	0.49 nM	> 1000 nM	> 1000 nM	0.24 nM	–	–	–	–	–	–	–	–	–	–	–	–
CC(C)C[C@@H](NC(=O)[C@@H](Cc1ccccc1)NC(=O)N(CCN)CC1CC1)C(=O)N[C@H](CCCCN)C(=O)N1CCC(N)(C(=O)O)CC1 [Compound 48]	–	–	–	3.79 nM	> 1000 nM	> 1000 nM	12 nM	–	–	–	–	–	–	–	–	–	–	–	–
CC(C)C[C@@H](NC(=O)[C@@H](Cc1ccccc1)NC(=O)N(CCN)Cc1ccc(F)cc1)C(=O)C[C@H](CCCCN)C(=O)N1CCC(N)(C(=O)O)CC1 [Compound 50]	–	–	–	–	–	–	–	–	–	–	–	–	–	–	–	0.27 nM	> 1000 nM	> 1000 nM	0.43 nM
(2R)-2-[(2R)-2-{[(2-amino-1-phenylethyl)(methyl)carbamoyl)amino}-3-phenylpropionylamino]-N-[(2R)-6-amino-1-{4-[(methylcarbamoyl)amino]piperidin-1-yl}-1-oxohexyl-2-yl]-4-methylpentanamide [Compound 8]	–	–	–	–	–	–	–	–	–	–	–	–	–	–	–	0.09 nM	> 1000 nM	> 1000 nM	0.9 nM
